Assay results from patent publication US12435092B2, “Substituted imidazo[1,2-A]quinazolines as inhibitors of PARG” (858 Therapeutics, Inc., priority 2022, dated 2025).

Molecular target: T1, cellular PARG (Homo sapiens, UniProt Q86W56)
T1 construct: endogenous in cells; host or cells: HeLa
Test: Nuclear PAR accumulation assay (immunofluorescence high-content imaging)
Format: cell-based
Conditions: HeLa cells, 1 hour compound treatment then MMS 50 μg/mL for an additional hour
Outline: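 HeLa cells pretreated 1 h at 37 °C with compound, then 1 h with 50 μg/mL MMS (final), methanol-fixed and immunostained for PAR with DAPI nuclear counterstain. Nuclear PAR intensity and percent PAR-positive cells quantified by high-content imaging (≥1,000 cells/well). IC50 by four-parameter logistic fit, normalized to 0.1% DMSO and reference-compound controls.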

T1 sequence (Q86W56 whole entry): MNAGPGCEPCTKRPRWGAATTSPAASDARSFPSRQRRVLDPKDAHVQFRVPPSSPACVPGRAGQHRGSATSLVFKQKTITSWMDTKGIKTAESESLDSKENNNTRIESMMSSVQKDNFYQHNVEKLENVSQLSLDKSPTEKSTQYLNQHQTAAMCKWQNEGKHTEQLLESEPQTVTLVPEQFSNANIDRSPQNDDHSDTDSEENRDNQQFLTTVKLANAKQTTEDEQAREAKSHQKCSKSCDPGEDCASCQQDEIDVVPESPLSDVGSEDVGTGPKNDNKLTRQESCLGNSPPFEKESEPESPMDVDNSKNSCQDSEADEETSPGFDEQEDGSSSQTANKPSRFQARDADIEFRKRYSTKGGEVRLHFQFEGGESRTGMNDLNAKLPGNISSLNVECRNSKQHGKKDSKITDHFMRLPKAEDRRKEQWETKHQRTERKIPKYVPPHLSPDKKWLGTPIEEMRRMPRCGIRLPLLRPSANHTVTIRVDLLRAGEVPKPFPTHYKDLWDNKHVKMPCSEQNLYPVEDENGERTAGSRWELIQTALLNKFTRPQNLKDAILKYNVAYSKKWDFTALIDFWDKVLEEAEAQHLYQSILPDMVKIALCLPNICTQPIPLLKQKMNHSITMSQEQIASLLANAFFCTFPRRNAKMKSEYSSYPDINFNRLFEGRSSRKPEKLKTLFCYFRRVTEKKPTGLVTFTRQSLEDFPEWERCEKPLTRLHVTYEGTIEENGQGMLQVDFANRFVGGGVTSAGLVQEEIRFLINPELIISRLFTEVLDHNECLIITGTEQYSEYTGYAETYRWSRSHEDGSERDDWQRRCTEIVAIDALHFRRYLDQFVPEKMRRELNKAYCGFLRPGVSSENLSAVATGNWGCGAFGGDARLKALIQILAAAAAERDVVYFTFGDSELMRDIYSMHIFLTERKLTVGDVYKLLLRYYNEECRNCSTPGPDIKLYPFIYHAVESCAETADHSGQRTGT

Structure (SMILES) | IC50 [nM]
COC[C@H]1CN=C2N(Cc3cnn(C)c3)C(=O)c3cc(S(=O)(=O)NC4(C)CC4)ccc3N21 [Example 78, (R)-1-(methoxymethyl)-4-((1-methyl-1H-pyrazol-4-yl)methyl)-N-(1-methylcyclopropyl)-5-oxo-1,2,4,5-tetrahydroimidazo[1,2-a]quinazoline-7-sulfonamide] | 100 to 1000
Cc1nc(C)c([C@@H]2CN=C3N(CC4CC4)C(=O)c4cc(S(=O)(=O)NC5(C)CC5)ccc4N32)s1 [Example 82, (S)-4-(cyclopropylmethyl)-1-(2,4-dimethylthiazol-5-yl)-N-(1-methylcyclopropyl)-5-oxo-1,2,4,5-tetrahydroimidazo[1,2-a]quinazoline-7-sulfonamide] | 100 to 1000
Cn1cc(CN2C(=O)c3cc(S(=O)(=O)NC4(C)CC4)ccc3N3C2=NC[C@@H]3C#CC2CC2)cn1 [Example 84, (S)-1-(cyclopropylethynyl)-4-((1-methyl-1H-pyrazol-4-yl)methyl)-N-(1-methylcyclopropyl)-5-oxo-1,2,4,5-tetrahydroimidazo[1,2-a]quinazoline-7-sulfonamide] | 1000 to 10000
C[C@@H]1CN=C2N(Cc3cn(C)nn3)C(=O)c3cc(S(=O)(=O)NC4(C)CC4)ccc3N21 [Example 90, (R)-1-methyl-4-((1-methyl-1H-1,2,3-triazol-4-yl)methyl)-N-(1-methylcyclopropyl)-5-oxo-1,2,4,5-tetrahydroimidazo[1,2-a]quinazoline-7-sulfonamide] | 100 to 1000
[2H]C([2H])(c1cnn(C)c1)N1C(=O)c2cc(S(=O)(=O)NC3(C)CC3)ccc2N2C1=NC[C@@H]2C [Example 91, (S)-4-(dideutero(1-methyl-1H-pyrazol-4-yl)methyl)-1-methyl-N-(1-methylcyclopropyl)-5-oxo-1,2,4,5-tetrahydroimidazo[1,2-a]quinazoline-7-sulfonamide] | 100 to 1000
[2H]C([2H])(c1cnn(C)c1)N1C(=O)c2cc(S(=O)(=O)NC3(C)CC3)cc(OC)c2N2C1=NC[C@H]2C [Example 92, (R)-4-(dideutero(1-methyl-1H-pyrazol-4-yl)methyl)-9-methoxy-1-methyl-N-(1-methylcyclopropyl)-5-oxo-1,2,4,5-tetrahydroimidazo[1,2-a]quinazoline-7-sulfonamide] | 100 to 1000
Cc1nc(C)c(CN2C(=O)c3cc(S(=O)(=O)NC4CC4)ccc3N3C2=NC[C@H]3C)s1 [Example 94, (R)-N-cyclopropyl-4-((2,4-dimethylthiazol-5-yl)methyl)-1-methyl-5-oxo-1,2,4,5-tetrahydroimidazo[1,2-a]quinazoline-7-sulfonamide] | ≤ 100
CN(C)C[C@@H]1CN=C2N(Cc3cnn(C)c3)C(=O)c3cc(S(=O)(=O)NC4(C)CC4)ccc3N21 [Example 95, (R)-1-((dimethylamino)methyl)-4-((1-methyl-1H-pyrazol-4-yl)methyl)-N-(1-methylcyclopropyl)-5-oxo-1,2,4,5-tetrahydroimidazo[1,2-a]quinazoline-7-sulfonamide] | ≤ 100
CN(C)C[C@H]1CN=C2N(Cc3cnn(C)c3)C(=O)c3cc(S(=O)(=O)NC4(C)CC4)ccc3N21 [Example 96, (S)-1-((dimethylamino)methyl)-4-((1-methyl-1H-pyrazol-4-yl)methyl)-N-(1-methylcyclopropyl)-5-oxo-1,2,4,5-tetrahydroimidazo[1,2-a]quinazoline-7-sulfonamide] | 1000 to 10000
Cn1cc(CN2C(=O)c3cc(S(=O)(=O)NC4(C)CC4)ccc3N3C2=NC[C@H]3CN)cn1 [Example 97, (R)-1-(aminomethyl)-4-((1-methyl-1H-pyrazol-4-yl)methyl)-N-(1-methylcyclopropyl)-5-oxo-1,2,4,5-tetrahydroimidazo[1,2-a]quinazoline-7-sulfonamide] | 100 to 1000
[2H]C([2H])(c1sc(C)nc1C)N1C(=O)c2cc(S(=O)(=O)NC3(C)CC3)ccc2N2C1=N[C@H]1COC[C@H]12 [Example 98, (7aR,10aS)-6-(dideutero(2,4-dimethylthiazol-5-yl)methyl)-N-(1-methylcyclopropyl)-5-oxo-5,6,7a,8,10,10a-hexahydrofuro[3′,4′:4,5]imidazo[1,2-a]quinazoline-3-sulfonamide] | ≤ 100

Continued, values first:

IC50 [nM] | Structure (SMILES)
≤ 100 | Cc1nc(C)c(CN2C(=O)c3cc(S(=O)(=O)NC4(C)CC4)ccc3N3C2=NC[C@H]3C)s1 [Example 73, (R)-4-((2,4-dimethylthiazol-5-yl)methyl)-1-methyl-N-(1-methylcyclopropyl)-5-oxo-1,2,4,5-tetrahydroimidazo[1,2-a]quinazoline-7-sulfonamide]
≤ 100 | C[C@@H]1CN=C2N(Cc3cnn(C)c3)C(=O)c3cc(S(=O)(=O)NC4(C)CC4)c(F)cc3N21 [Example 74, (R)-8-fluoro-1-methyl-4-((1-methyl-1H-pyrazol-4-yl)methyl)-N-(1-methylcyclopropyl)-5-oxo-1,2,4,5-tetrahydroimidazo[1,2-a]quinazoline-7-sulfonamide]
≤ 100 | C[C@H]1CCN=C2N(Cc3cnn(C)c3)C(=O)c3cc(S(=O)(=O)NC4(C)CC4)ccc3N21 [Example 75, (S)-1-methyl-5-((1-methyl-1H-pyrazol-4-yl)methyl)-N-(1-methylcyclopropyl)-6-oxo-2,3,5,6-tetrahydro-1H-pyrimido[1,2-a]quinazoline-8-sulfonamide]
≤ 100 | C[C@@H]1CCN=C2N(Cc3cnn(C)c3)C(=O)c3cc(S(=O)(=O)NC4(C)CC4)ccc3N21 [Example 76, (R)-1-methyl-5-((1-methyl-1H-pyrazol-4-yl)methyl)-N-(1-methylcyclopropyl)-6-oxo-2,3,5,6-tetrahydro-1H-pyrimido[1,2-a]quinazoline-8-sulfonamide]
≤ 100 | COC[C@@H]1CN=C2N(Cc3cnn(C)c3)C(=O)c3cc(S(=O)(=O)NC4(C)CC4)ccc3N21 [Example 77, (S)-1-(methoxymethyl)-4-((1-methyl-1H-pyrazol-4-yl)methyl)-N-(1-methylcyclopropyl)-5-oxo-1,2,4,5-tetrahydroimidazo[1,2-a]quinazoline-7-sulfonamide]
≤ 100 | Cn1cc(CN2C(=O)c3cc(S(=O)(=O)NC4(C)CC4)ccc3N3C2=N[C@H]2CCC[C@H]23)cn1 [Example 79, (7aS,10aR)-6-((1-methyl-1H-pyrazol-4-yl)methyl)-N-(1-methylcyclopropyl)-5-oxo-6,7a,8,9,10,10a-hexahydro-5H-cyclopenta[4,5]imidazo[1,2-a]quinazoline-3-sulfonamide]
≤ 100 | Cc1nn(C)cc1CN1C(=O)c2cc(S(=O)(=O)NC3(C)CC3)ccc2N2C1=NC[C@H]2C [Example 80, (R)-4-((1,3-dimethyl-1H-pyrazol-4-yl)methyl)-1-methyl-N-(1-methylcyclopropyl)-5-oxo-1,2,4,5-tetrahydroimidazo[1,2-a]quinazoline-7-sulfonamide]
≤ 100 | Cc1c(CN2C(=O)c3cc(S(=O)(=O)NC4(C)CC4)ccc3N3C2=NC[C@H]3C)cnn1C [Example 81, (R)-4-((1,5-dimethyl-1H-pyrazol-4-yl)methyl)-1-methyl-N-(1-methylcyclopropyl)-5-oxo-1,2,4,5-tetrahydroimidazo[1,2-a]quinazoline-7-sulfonamide]
≤ 100 | Cn1cc(CN2C(=O)c3cc(S(=O)(=O)NC4(C)CC4)ccc3N3C2=NC[C@H]3C#CC2CC2)cn1 [Example 83, (R)-1-(cyclopropylethynyl)-4-((1-methyl-1H-pyrazol-4-yl)methyl)-N-(1-methylcyclopropyl)-5-oxo-1,2,4,5-tetrahydroimidazo[1,2-a]quinazoline-7-sulfonamide]
≤ 100 | [2H]C([2H])(c1cnn(C)c1)N1C(=O)c2cc(S(=O)(=O)NC3(C)CC3)ccc2N2C1=N[C@H]1CCC[C@H]12 [Example 85, (7aS,10aR)-6-(dideutero(1-methyl-1H-pyrazol-4-yl)methyl)-N-(1-methylcyclopropyl)-5-oxo-6,7a,8,9,10,10a-hexahydro-5H-cyclopenta[4,5]imidazo[1,2-a]quinazoline-3-sulfonamide]
≤ 100 | [2H]C([2H])(c1cnn(C)c1)N1C(=O)c2cc(S(=O)(=O)NC3(C)CC3)c(F)cc2N2C1=NC[C@H]2C [Example 86, (R)-4-(dideutero(1-methyl-1H-pyrazol-4-yl)methyl)-8-fluoro-1-methyl-N-(1-methylcyclopropyl)-5-oxo-1,2,4,5-tetrahydroimidazo[1,2-a]quinazoline-7-sulfonamide]
≤ 100 | [2H]C([2H])(c1cnn(C)c1)N1C(=O)c2cc(S(=O)(=O)NC3(C)CC3)ccc2N2C1=NC[C@H]2C(F)(F)F [Example 87, (S)-4-(dideutero(1-methyl-1H-pyrazol-4-yl)methyl)-N-(1-methylcyclopropyl)-5-oxo-1-(trifluoromethyl)-1,2,4,5-tetrahydroimidazo[1,2-a]quinazoline-7-sulfonamide]
≤ 100 | [2H]C([2H])(c1cnn(C)c1)N1C(=O)c2cc(S(=O)(=O)NC3(C#N)CC3)ccc2N2C1=N[C@H]1CCC[C@H]12 [Example 88, (7aS,10aR)-N-(1-cyanocyclopropyl)-6-(dideutero(1-methyl-1H-pyrazol-4-yl)methyl)-5-oxo-6,7a,8,9,10,10a-hexahydro-5H-cyclopenta[4,5]imidazo[1,2-a]quinazoline-3-sulfonamide]
≤ 100 | [2H]C([2H])(c1sc(C)nc1C)N1C(=O)c2cc(S(=O)(=O)NC3(C)CC3)ccc2N2C1=NC[C@H]2C [Example 89, (R)-4-(dideutero(2,4-dimethylthiazol-5-yl)methyl)-1-methyl-N-(1-methylcyclopropyl)-5-oxo-1,2,4,5-tetrahydroimidazo[1,2-a]quinazoline-7-sulfonamide]
≤ 100 | Cn1cc(CN2C(=O)c3cc(S(=O)(=O)NC4(C)CC4)ccc3N3C2=N[C@H]2COC[C@H]23)cn1 [Example 93, (7aR,10aS)-6-((1-methyl-1H-pyrazol-4-yl)methyl)-N-(1-methylcyclopropyl)-5-oxo-5,6,7a,8,10,10a-hexahydrofuro[3′,4′:4,5]imidazo[1,2-a]quinazoline-3-sulfonamide]
